US4745124A, “Orally effective anti-hypertensive agents” (priority 1983, dated 1988)
Where two headings read alike, the source gives them in different places. One block for each molecule: values may come before it. No end group written: not given here. *: point of attachment. Bz = O=C(c1ccccc1)*

Columns and labels:
[1] = target: T1, angiotensin converting enzyme (human urinary ACE) (Homo sapiens, UniProt P12821); assay: ACE activity assay, I50 (Example 216A); format: biochemical; settings: Benzoyl-GlyHisLeu 1×10^-4 M, Hepes pH 8.0, 37° C, in vitro
T1 construct: ACE purified from human urine; from tissue; host or cells: human urine (ultrafiltration and Sephacryl S-200, first eluting peak; prepared as in Ryan et al., Tissue and Cell 10, 555 (1978))

[2] = test system: pressor effects of angiotensin I; assay: oral effectiveness: blood pressure response to angiotensin I in anesthetized rats; format: in vivo, rat; settings: oral 10 mg, Ex. 225
Outline: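 Fasted rats under pentobarbital anesthesia (50-60 mg/kg i.p.), ventilated, with carotid arterial pressure recorded; i.v. angiotensin I (80 ng, 160 ng or 400 ng/kg) or angiotensin II (80 ng) challenges repeated at timed intervals after oral gavage of compound (2-20 mg/kg, 10 mg, 17 or 23 μmol/kg) in aqueous NaHCO3.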

[3] = human urinary ACE, read-out: I50

T1 sequence (P12821 30-1232 limits assumed): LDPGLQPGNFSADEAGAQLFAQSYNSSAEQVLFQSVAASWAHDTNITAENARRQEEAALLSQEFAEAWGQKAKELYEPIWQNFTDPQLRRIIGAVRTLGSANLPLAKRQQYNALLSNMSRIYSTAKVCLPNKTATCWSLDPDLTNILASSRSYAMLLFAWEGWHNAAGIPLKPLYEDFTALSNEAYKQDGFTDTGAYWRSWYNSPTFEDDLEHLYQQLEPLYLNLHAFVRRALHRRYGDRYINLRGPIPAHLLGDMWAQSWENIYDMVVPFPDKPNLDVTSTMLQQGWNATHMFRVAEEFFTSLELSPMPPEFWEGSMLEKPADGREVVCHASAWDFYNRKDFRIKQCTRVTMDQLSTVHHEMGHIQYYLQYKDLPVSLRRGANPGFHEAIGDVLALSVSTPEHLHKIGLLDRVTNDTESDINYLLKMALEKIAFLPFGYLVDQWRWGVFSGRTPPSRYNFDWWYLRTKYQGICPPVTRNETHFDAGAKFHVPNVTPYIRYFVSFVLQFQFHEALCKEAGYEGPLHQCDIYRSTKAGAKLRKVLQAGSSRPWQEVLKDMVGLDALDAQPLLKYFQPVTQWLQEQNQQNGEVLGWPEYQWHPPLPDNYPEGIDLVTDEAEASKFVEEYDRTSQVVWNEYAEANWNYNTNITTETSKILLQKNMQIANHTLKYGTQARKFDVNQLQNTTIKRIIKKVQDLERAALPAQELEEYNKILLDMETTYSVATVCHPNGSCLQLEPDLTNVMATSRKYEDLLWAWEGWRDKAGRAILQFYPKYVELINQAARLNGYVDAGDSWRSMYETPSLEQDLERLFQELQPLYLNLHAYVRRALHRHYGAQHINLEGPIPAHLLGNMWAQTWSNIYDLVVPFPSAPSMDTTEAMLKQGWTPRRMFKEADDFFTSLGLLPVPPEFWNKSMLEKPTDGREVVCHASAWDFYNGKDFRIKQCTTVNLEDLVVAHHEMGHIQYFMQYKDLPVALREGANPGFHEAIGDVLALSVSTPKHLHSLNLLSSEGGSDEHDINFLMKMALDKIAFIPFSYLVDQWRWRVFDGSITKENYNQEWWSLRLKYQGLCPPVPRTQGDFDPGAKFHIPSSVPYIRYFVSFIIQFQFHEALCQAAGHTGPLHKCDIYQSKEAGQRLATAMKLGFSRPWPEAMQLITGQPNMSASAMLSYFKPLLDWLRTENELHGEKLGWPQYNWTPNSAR

Molecule: acetyl-Cys--Pro
IC50 [1, 3]: 5 µM

IC50 [1, 3]: 0.003 µM
Molecule: CC(SC(=O)C(Cc1ccccc1)NC(=O)c1ccccc1)C(=O)N1CC=C[C@H]1C(=O)O (stereo partly drawn) [(B), N-(2-benzoylphenylalanylthiopropanoyl)-L-3,4-dehydroproline]
Blood pressure response to angiotensin I (% of control) ([2]; 3 min): 100%
Blood pressure response to angiotensin I (% of control) ([2]; 9 min): 81%
Blood pressure response to angiotensin I (% of control) ([2]; 14 min): 74%
Blood pressure response to angiotensin I (% of control) ([2]; 24 min): 74%
Blood pressure response to angiotensin I (% of control) ([2]; 28 min): 74%
Blood pressure response to angiotensin I (% of control) ([2]; 34 min): 63%
Blood pressure response to angiotensin I (% of control) ([2]; 44 min): 56%
Blood pressure response to angiotensin I (% of control) ([2]; 54 min): 44%
Blood pressure response to angiotensin I (% of control) ([2]; 64 min): 56%
Blood pressure response to angiotensin I (% of control) ([2]; 85 min): 37%
Blood pressure response to angiotensin I (% of control) ([2]; 94 min): 44%
Blood pressure response to angiotensin I (% of control) ([2]; 104 min): 74%
Blood pressure response to angiotensin I (% of control) ([2]; 114 min): 56%
Blood pressure response to angiotensin I (% of control) ([2]; 146 min): 100%

Molecule: < Glu--Cys--Pro
IC50 [1, 3]: 4 µM

Molecule: Cys--Pro
IC50 [1, 3]: 11 µM

IC50 [1, 3]: 40 µM
Molecule: N[C@@H](CCC(=O)N[C@@H](CS)C(=O)NCC(=O)O)C(=O)O [γ Glu--Cys--Gly (glutathione), γ Glu--Cys--Gly]

Molecule: N[C@@H](CS)C(=O)O [L-cysteine]
IC50 ([1]; I50, human urinary ACE): 200 µM

Molecule: Bz-Phe-Cys-Pro
IC50 [1, 3]: 0.6 µM
